# From PMC6408443, “Structural determinants of lipid specificity within Ups/PRELI lipid transfer proteins” (Nature Communications, 2019)
# Changes are numbered by the printed parent chain.
# Experiments:
# Assay in all cases: liposome lipid transfer, NBD dequenching
# Type in all cases: biochemical
# Ups2Δ174–Mdm35 = target: T1, Ups2Δ174–Mdm35 (Saccharomyces cerevisiae, UniProt P35200); conditions: labelled compound, 50 nM complex, 12.5 µM donor and 50 µM acceptor liposomes, pH 7.4, 25 °C
# T1 construct: gene UPS2; N-His Ups2 truncated after W174, with Mdm35, E. coli Rosetta-gami2; with Mitochondrial distribution and morphology protein 35
# T1 sequence (P35200 1-174): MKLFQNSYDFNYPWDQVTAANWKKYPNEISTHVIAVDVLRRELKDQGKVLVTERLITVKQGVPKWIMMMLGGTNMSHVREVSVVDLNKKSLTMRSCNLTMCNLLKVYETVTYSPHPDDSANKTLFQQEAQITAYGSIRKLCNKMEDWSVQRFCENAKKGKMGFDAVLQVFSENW
# T1 sequence (O60200 1-86 partner): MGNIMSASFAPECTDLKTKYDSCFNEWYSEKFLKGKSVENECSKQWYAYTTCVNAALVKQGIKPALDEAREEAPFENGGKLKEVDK
# PRELID1–TRIAP1 [1] = target: T2, PRELID1–TRIAP1 (Homo sapiens, UniProt Q9Y255); conditions: labelled compound, 12.5 µM donor and 50 µM acceptor liposomes, pH 7.4, 20 °C
# T2 construct: N-His-tagged PRELID1 co-expressed with TRIAP1 from pETDuet-1 in E. coli; heterodimer
# T2 sequence (Q9Y255 whole entry): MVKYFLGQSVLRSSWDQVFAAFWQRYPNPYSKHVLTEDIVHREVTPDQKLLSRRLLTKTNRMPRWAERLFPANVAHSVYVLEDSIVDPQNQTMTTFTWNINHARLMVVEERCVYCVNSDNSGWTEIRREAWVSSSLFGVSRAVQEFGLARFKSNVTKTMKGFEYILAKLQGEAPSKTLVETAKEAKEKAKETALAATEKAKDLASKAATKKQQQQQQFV
# T2 sequence (O43715 whole entry partner): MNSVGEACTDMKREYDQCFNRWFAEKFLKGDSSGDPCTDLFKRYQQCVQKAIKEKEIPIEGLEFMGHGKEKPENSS
# Ups1–Mdm35 [2] = target: T3, Ups1–Mdm35 (Saccharomyces cerevisiae, UniProt Q05776); conditions: labelled compound, 12.5 µM donor and 50 µM acceptor liposomes, pH 7.4, 20 °C
# T3 construct: N-terminally His-tagged Ups1 with Mdm35, E. coli S30 cell-free expression; heterodimer; with Mitochondrial distribution and morphology protein 35
# T3 sequence (Q05776 1-175): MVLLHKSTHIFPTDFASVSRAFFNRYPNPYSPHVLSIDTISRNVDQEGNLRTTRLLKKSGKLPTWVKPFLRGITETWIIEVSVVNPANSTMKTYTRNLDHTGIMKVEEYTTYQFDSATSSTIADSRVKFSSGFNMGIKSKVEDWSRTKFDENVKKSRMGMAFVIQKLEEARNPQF
# T3 sequence (O60200 1-86 partner): T1 sequence (O60200 1-86 partner)
# Ups2 loop-swap variant = target: T4, Ups2 loop-swap variant (Saccharomyces cerevisiae, UniProt P35200); conditions: labelled compound; 50 nM complex, 12.5 µM donor and 50 µM acceptor liposomes, pH 7.4, 25 °C
# T4 construct: N-His Ups2Δ174 carrying the Ups1 Omega loop (residues 60-71), codon-optimised, with Mdm35, E. coli Rosetta-gami2; with Mitochondrial distribution and morphology protein 35
# T4 sequence (P35200 1-174): T1 sequence (P35200 1-174)
# T4 sequence (O60200 1-86 partner): T1 sequence (O60200 1-86 partner)
# PRELID1–TRIAP1 [3] = target: T5, PRELID1–TRIAP1 (Homo sapiens, UniProt Q9Y255, K58T); conditions: labelled compound; 120 nM complex, 12.5 µM donor and 50 µM acceptor liposomes, pH 7.4, 20 °C
# T5 construct: N-His-tagged PRELID1 co-expressed with TRIAP1 from pETDuet-1 in E. coli; heterodimer
# T5 sequence (Q9Y255 whole entry K58T): as the sequence (Q9Y255 whole entry) above, with K58T counted along it
# T5 sequence (O43715 whole entry partner): as the sequence (O43715 whole entry partner) above
# PRELID1–TRIAP1 [4] = target: T6, PRELID1–TRIAP1 (Homo sapiens, UniProt Q9Y255, K58V); conditions: labelled compound; 120 nM complex, 12.5 µM donor and 50 µM acceptor liposomes, pH 7.4, 20 °C
# T6 construct: N-His-tagged PRELID1 co-expressed with TRIAP1 from pETDuet-1 in E. coli; heterodimer
# T6 sequence (Q9Y255 whole entry K58V): as the sequence (Q9Y255 whole entry) above, with K58V counted along it
# T6 sequence (O43715 whole entry partner): as the sequence (O43715 whole entry partner) above
# Ups1–Mdm35 [5] = target: T7, Ups1–Mdm35 (Saccharomyces cerevisiae, UniProt Q05776, E108D); conditions: labelled compound; 50 nM complex, 12.5 µM donor and 50 µM acceptor liposomes, pH 7.4, 20 °C
# T7 construct: N-terminally His-tagged Ups1 with Mdm35, E. coli S30 cell-free expression; heterodimer; with Mitochondrial distribution and morphology protein 35
# T7 sequence (Q05776 1-175 E108D): T3 sequence (Q05776 1-175) with E108D
# T7 sequence (O60200 1-86 partner): T1 sequence (O60200 1-86 partner)
# Ups1–Mdm35 [6] = target: T8, Ups1–Mdm35 (Saccharomyces cerevisiae, UniProt Q05776, K58V); conditions: labelled compound; 50 nM complex, 12.5 µM donor and 50 µM acceptor liposomes, pH 7.4, 20 °C
# T8 construct: N-terminally His-tagged Ups1 with Mdm35, E. coli S30 cell-free expression; heterodimer; with Mitochondrial distribution and morphology protein 35
# T8 sequence (Q05776 1-175 K58V): T3 sequence (Q05776 1-175) with K58V
# T8 sequence (O60200 1-86 partner): T1 sequence (O60200 1-86 partner)
Structure (SMILES),"liposome lipid transfer, NBD dequenching (Ups2Δ174–Mdm35; inefficient substrate)","liposome lipid transfer, NBD dequenching (PRELID1–TRIAP1 [1])","liposome lipid transfer, NBD dequenching (Ups1–Mdm35 [2]; 12.5 nM complex)","liposome lipid transfer, NBD dequenching (Ups2 loop-swap variant)","liposome lipid transfer, NBD dequenching (Ups2Δ174–Mdm35)","liposome lipid transfer, NBD dequenching (PRELID1–TRIAP1 [1]; 120 nM complex, low activity)","liposome lipid transfer, NBD dequenching (PRELID1–TRIAP1 [3])","liposome lipid transfer, NBD dequenching (PRELID1–TRIAP1 [4])","liposome lipid transfer, NBD dequenching (Ups1–Mdm35 [2]; 50 nM complex, inefficient substrate)","liposome lipid transfer, NBD dequenching (Ups1–Mdm35 [5])","liposome lipid transfer, NBD dequenching (Ups1–Mdm35 [6])"
CCCCCCCC/C=C\CCCCCCCC(=O)OC[C@H](COP(=O)(O)O)OC(=O)CCCCCCCCCCCNc1ccc([N+](=O)[O-])c2nonc12 [NBD-PA],Ups2–Mdm35 complexes transferred PA only inefficiently when compared to PS,"While efficiently mediating the transfer of PA, PRELID1 showed a low PS transfer activity",PA transfer of wildtype (WT) and mutant Ups1–Mdm35 complexes in vitro,we observed efficient PA transport by the loop-swap variant of Ups2,–,–,–,–,–,–,–
CCCCCCCC/C=C\CCCCCCCC(=O)OC[C@H](COP(=O)(O)OC[C@H](N)C(=O)O)OC(=O)CCCCCCCCCCCNc1ccc([N+](=O)[O-])c2nonc12 [NBD-PS],–,–,–,its ability to transfer PS was significantly reduced,PS transfer by Ups2 and loop-swap variant,"PRELID1 showed a low PS transfer activity, similar to Ups1",substitution of K58 by valine or threonine substantially increased the ability of PRELID1,substitution of K58 by valine or threonine substantially increased the ability of PRELID1,Ups1–Mdm35 complexes transferred PS only inefficiently when compared to PA,The mutations K58V or E108D in Ups1 increased PS transport,The mutations K58V or E108D in Ups1 increased PS transport
